{"source": "paper PMC2898170", "about": "(Neuropsychiatric Disease and Treatment, 2010)", "key": {"[1]": {"target": "T1, human peptide transporter-1 (PEPT1) (Homo sapiens, UniProt P46059)", "T1 sequence (P46059 1-708)": "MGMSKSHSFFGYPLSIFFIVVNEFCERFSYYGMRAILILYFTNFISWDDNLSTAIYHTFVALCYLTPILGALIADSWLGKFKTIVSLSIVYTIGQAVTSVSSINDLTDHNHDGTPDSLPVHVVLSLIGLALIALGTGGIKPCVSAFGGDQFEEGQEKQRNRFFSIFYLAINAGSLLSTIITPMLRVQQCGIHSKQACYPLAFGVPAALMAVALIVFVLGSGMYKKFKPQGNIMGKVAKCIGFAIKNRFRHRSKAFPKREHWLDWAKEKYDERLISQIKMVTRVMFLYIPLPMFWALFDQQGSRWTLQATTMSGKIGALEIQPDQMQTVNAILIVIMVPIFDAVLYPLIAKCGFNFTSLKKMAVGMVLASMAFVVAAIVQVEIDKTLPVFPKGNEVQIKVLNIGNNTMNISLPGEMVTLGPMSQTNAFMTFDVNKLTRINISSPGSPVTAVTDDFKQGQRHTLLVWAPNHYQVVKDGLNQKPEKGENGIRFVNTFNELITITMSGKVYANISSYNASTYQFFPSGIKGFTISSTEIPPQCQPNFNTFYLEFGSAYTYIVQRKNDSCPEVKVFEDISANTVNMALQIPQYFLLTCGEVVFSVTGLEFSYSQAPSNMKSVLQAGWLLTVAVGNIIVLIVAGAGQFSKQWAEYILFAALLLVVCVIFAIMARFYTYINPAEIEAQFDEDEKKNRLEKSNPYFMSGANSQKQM", "assay": "inhibition of radiolabeled Gly-Sar uptake in transfected CHO cells", "assay_type": "cell-based"}, "PEPT2": {"target": "T2, PEPT2 (Homo sapiens, UniProt Q16348)", "T2 sequence (Q16348 1-729)": "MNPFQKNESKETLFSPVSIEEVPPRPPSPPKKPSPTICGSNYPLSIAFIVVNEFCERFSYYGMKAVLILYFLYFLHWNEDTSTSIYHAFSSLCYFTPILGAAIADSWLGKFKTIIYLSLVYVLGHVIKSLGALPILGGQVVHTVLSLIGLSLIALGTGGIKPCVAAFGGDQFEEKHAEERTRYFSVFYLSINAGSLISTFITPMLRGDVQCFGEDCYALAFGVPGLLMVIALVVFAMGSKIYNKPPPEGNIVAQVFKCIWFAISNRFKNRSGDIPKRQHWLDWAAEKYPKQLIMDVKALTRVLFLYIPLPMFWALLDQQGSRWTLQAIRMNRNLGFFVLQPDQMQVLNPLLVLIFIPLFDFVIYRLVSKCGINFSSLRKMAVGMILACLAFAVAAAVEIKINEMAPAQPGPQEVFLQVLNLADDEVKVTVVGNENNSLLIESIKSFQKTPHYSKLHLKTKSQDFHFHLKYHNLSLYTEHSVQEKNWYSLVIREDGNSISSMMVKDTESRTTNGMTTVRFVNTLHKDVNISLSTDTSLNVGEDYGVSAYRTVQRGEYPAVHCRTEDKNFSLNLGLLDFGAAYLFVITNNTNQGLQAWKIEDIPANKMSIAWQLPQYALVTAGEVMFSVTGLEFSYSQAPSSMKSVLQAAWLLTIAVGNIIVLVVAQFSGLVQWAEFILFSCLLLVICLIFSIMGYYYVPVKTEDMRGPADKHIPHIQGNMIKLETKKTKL", "assay": "inhibition of radiolabeled Gly-Sar uptake in transfected CHO cells", "assay_type": "cell-based"}}}
{"smiles": "C[C@@H](Cc1ccccc1)NC(=O)[C@@H](N)CCCCN", "note": "[lisdexamfetamine dimesylate]", "values": [{"measurement": "IC50", "setting": "[1]", "value": "~4", "unit": "mM"}, {"measurement": "IC50", "setting": "PEPT2", "value": 0.246, "unit": "mM"}]}
